Earlier results as cited in patent publication US20250143905A1, “TOPICAL TREATMENT FOR ANORECTAL DISORDERS WITH AND WITHOUT SEAT CUSHION” (priority 2019, published 2025).

System: PPAR-γ
Details: septic rats; pretreatment with curcumin for 3 days at 0.24 μmol/kg body weight; liver

COc1cc(/C=C/C(=O)CC(=O)/C=C/c2ccc(O)c(OC)c2)ccc1O [curcumin]
increase in PPAR-γ mRNA levels: 45% | increase in PPAR-γ protein levels: 65%
